From article PMC11025159 (Journal of Translational Medicine, 2024)

How the values were obtained:
[1] = Body weight, biochemical and haematological parameters in DHT-induced AGA mice (0.5% testosterone then topical treatment); format: in vivo, C57BL/6J mice
Protocol: The experiments were performed on C57BL/6 J and Athymic nude mice (NU/J Foxn1^nu) of 6–7 weeks of age obtained from Animal House Facility, CSIR-Indian Institute of Integrative Medicine (IIIM), Jammu, India. […] The animals were provided with ad libitum feed (standard pellet diet) and autoclaved RO water throughout the study. The body weight of mice was measured after seven days before treatment.
C57BL/6 J mice (male) were obtained from CSIR-IIIM Animal House at 7 weeks of age. We used a DHT-induced AGA mice model for this study. […] At the end of the experiment, skin samples were collected and preserved in 10% neutral buffered formalin for tissue sectioning and staining using haematoxylin and eosin (H&E). The histopathological examinations were performed under the 10× and 40× objectives of light microscope (Magnus, Mx21i).
Every two weeks during the experimental period, mice were anesthetized, and the blood samples were collected into tubes containing heparin sodium to detect the total and differential white blood cells, haemoglobin, red blood cell, platelet count, mean corpuscular haemoglobin, mean corpuscular volume, red blood cell volume, mean platelet volume, and analyzed using an automated haematology analyzer (Model: XT1800i; Make: Sysmex).
Every two weeks during the experimental period, mice and rats were anesthetized, and blood samples were collected into non-heparinized tubes and then centrifuged at 1000 rpm at 4 °C for 10 min to obtain the serum. The biochemical parameters, including total protein, aspartate aminotransferase, alanine aminotransferase, total protein, albumin, total bilirubin, direct bilirubin, glucose, total cholesterol, triglyceride, low-density lipoprotein, high-density lipoprotein, creatinine, and uric acid, were measured using an automatic biochemical analyzer (Model: EM360; Make: Erba Mannheim).

HEK-293 = assay: MTT cell viability assay HEK-293; format: cell-based, human
Protocol: Cell viability was evaluated using an MTT colorimetric assay. Cells were seeded (10^5 cells/mL) in 96-well plates and allowed to grow overnight at 37 ℃ with 5% CO2 in a cell-culture incubator. On the following day, the cells were treated with small molecules at different concentrations (0.2–10 micro-molar) or vehicle (DMSO). Cells were then further incubated for 48 h.

Fc1ccc(-c2cnc3[nH]cc(-c4ccnc(NC5CC5)n4)c3c2)cc1 [MJ04]
LDL ([1]; Day 21, 0.08 mg/Kg): 102 mg/dL
MCHC ([1]; Day 21, 0.08 mg/Kg): 28 g/dL
MCV ([1]; Day 21, 0.08 mg/Kg): 50 fL
NEUT ([1]; Day 21, 0.08 mg/Kg): 32.4%
PLT ([1]; Day 21, 0.08 mg/Kg): 424 103/μl
RBC ([1]; Day 21, 0.08 mg/Kg): 6.9 1012/l
Total protein ([1]; Day 21, 0.08 mg/Kg): 5.2 g/dL
Triglyceride ([1]; Day 21, 0.08 mg/Kg): 108 mg/dL
Urea ([1]; Day 21, 0.08 mg/Kg): 71 mg/dL
WBC ([1]; Day 21, 0.08 mg/Kg): 3.3 103/μl
LYMPH ([1]; Day 21, 0.08 mg/Kg, unit assumed): 63%
ALP ([1]; Day 28, 0.016 mg/Kg): 193 U/L
ALT/SGPT ([1]; Day 28, 0.016 mg/Kg): 85 U/L
AST/SGOT ([1]; Day 28, 0.016 mg/Kg): 75 U/L
Cholesterol ([1]; Day 28, 0.016 mg/Kg): 194 mg/dL
Creatine ([1]; Day 28, 0.016 mg/Kg): 0.20 mg/dL
HCT ([1]; Day 28, 0.016 mg/Kg): 46.0%
HDL ([1]; Day 28, 0.016 mg/Kg): 94 mg/dL
HGB ([1]; Day 28, 0.016 mg/Kg): 14 g/dL
LDL ([1]; Day 28, 0.016 mg/Kg): 109 mg/dL
MCHC ([1]; Day 28, 0.016 mg/Kg): 30.0 g/dL
MCV ([1]; Day 28, 0.016 mg/Kg): 63 fL
PLT ([1]; Day 28, 0.016 mg/Kg): 1727 103/μl
RBC ([1]; Day 28, 0.016 mg/Kg): 7.4 106/μl
Total protein ([1]; Day 28, 0.016 mg/Kg): 6.3 g/dL
Triglyceride ([1]; Day 28, 0.016 mg/Kg): 132 mg/dL
Urea ([1]; Day 28, 0.016 mg/Kg): 54 mg/dL
WBC ([1]; Day 28, 0.016 mg/Kg): 7.8 103/μl
ALP ([1]; Day 28, 0.04 mg/Kg): 243 U/L
ALT/SGPT ([1]; Day 28, 0.04 mg/Kg): 69 U/L
AST/SGOT ([1]; Day 28, 0.04 mg/Kg): 107 U/L
Cholesterol ([1]; Day 28, 0.04 mg/Kg): 165 mg/dL
Creatine ([1]; Day 28, 0.04 mg/Kg): 0.14 mg/dL
HCT ([1]; Day 28, 0.04 mg/Kg): 46.0%
HDL ([1]; Day 28, 0.04 mg/Kg): 108 mg/dL
HGB ([1]; Day 28, 0.04 mg/Kg): 14 g/dL
LDL ([1]; Day 28, 0.04 mg/Kg): 91 mg/dL
MCHC ([1]; Day 28, 0.04 mg/Kg): 30.0 g/dL
MCV ([1]; Day 28, 0.04 mg/Kg): 62.0 fL
PLT ([1]; Day 28, 0.04 mg/Kg): 1687 103/μl
RBC ([1]; Day 28, 0.04 mg/Kg): 7.5 106/μl
Total protein ([1]; Day 28, 0.04 mg/Kg): 5.8 g/dL
Triglyceride ([1]; Day 28, 0.04 mg/Kg): 122 mg/dL
Urea ([1]; Day 28, 0.04 mg/Kg): 52 mg/dL
WBC ([1]; Day 28, 0.04 mg/Kg): 7.5 103/μl
ALP ([1]; Day 28, 0.08 mg/Kg): 189 U/L
ALT/SGPT ([1]; Day 28, 0.08 mg/Kg): 63 U/L
AST/SGOT ([1]; Day 28, 0.08 mg/Kg): 113 U/L
Cholesterol ([1]; Day 28, 0.08 mg/Kg): 194 mg/dL
Creatine ([1]; Day 28, 0.08 mg/Kg): 0.13 mg/dL
HCT ([1]; Day 28, 0.08 mg/Kg): 52.0%
HDL ([1]; Day 28, 0.08 mg/Kg): 106 mg/dL
HGB ([1]; Day 28, 0.08 mg/Kg): 15 g/dL
LDL ([1]; Day 28, 0.08 mg/Kg): 78 mg/dL
MCHC ([1]; Day 28, 0.08 mg/Kg): 29.0 g/dL
MCV ([1]; Day 28, 0.08 mg/Kg): 61.0 fL
PLT ([1]; Day 28, 0.08 mg/Kg): 1362 103/μl
RBC ([1]; Day 28, 0.08 mg/Kg): 8.6 106/μl
Total protein ([1]; Day 28, 0.08 mg/Kg): 6.2 g/dL
Triglyceride ([1]; Day 28, 0.08 mg/Kg): 174 mg/dL
Urea ([1]; Day 28, 0.08 mg/Kg): 79 mg/dL
WBC ([1]; Day 28, 0.08 mg/Kg): 7.1 103/μl
safety ratio (IC50 against HEK293 normal cell line versus IC50 in A549 cancer cell line) (HEK-293): ~26
IC50 (HEK-293; Homo sapiens, HEK293, read-out: IC50 HEK-293, MTT, 48 h, normal cell line): > 100 µM
